Experimental data as given in ChEMBL document CHEMBL1123962, “Chemical aspects of metoprolol metabolism. Asymmetric synthesis and absolute configuration of the 3-[4-(1-hydroxy-2-methoxyethyl)phenoxy]-1-(isopropylamino)-2-propanols , the diastereomeric benzylic hydroxylation metabolites” (J Med Chem, 1988).

Tests used:
Rattus norvegicus [1] = species on record: Rattus norvegicus; experiment: Stereoselectivity in presence of rat liver microsomes; assay type: functional
Rattus norvegicus [2] = species on record: Rattus norvegicus; experiment: Product stereoselectivity in presence of rat liver microsomes; assay type: functional

| SMILES | Activity (Rattus norvegicus [1]) [%] | Activity (Rattus norvegicus [2]) [%] |
| --- | --- | --- |
| COCCc1ccc(OC[C@H](O)CNC(C)C)cc1 | 90.4 | – |
| COCCc1ccc(OCC(O)CNC(C)C)cc1 (racemic) | 93.2 | – |
| COCCc1ccc(OC[C@@H](O)CNC(C)C)cc1 | – | 96.3 |
